Experimental data from patent US9394346B2, “Method for producing an amino acid using a bacterium overexpressing an rhtC gene” (priority 1998, dated 2016).

What was measured:
Type in all cases: cell-based, E. coli
[1] = tested on: N99/pRhtC; test: MIC of amino acids and analogues on M9 agar, strain N99/pRhtC; settings: Escherichia coli; N99/pRhtC (multicopy rhtC); M9 agar (2%), about 10^4 viable cells, doubling increments
Procedure: (§1) Therefore, the effect of the pRhtB and pRhtC plasmids on susceptibility of the strain N99 which is a streptomycin-resistant (Str^R) mutant of the known strain W3350 (VKPM B-1557) to some amino acids and amino acid analogues was tested. Overnight broth cultures (10^9 cfu/ml) of the strains N99/pUC21, N99pUK21, N99/pRhtB and N99/pRhtC were diluted 1:100 in M9 minimal medium and grown for 5 h in the same medium. Then the log phase cultures thus obtained were diluted and about 10^4 viable cells were applied to well-dried test plates with M9 agar (2%) containing doubling increments of amino acids or analogues. Thus the minimum inhibitory concentrations (MIC) of these compounds were examined.

[2] = tested on: N99/pRhtB; test: MIC of amino acids and analogues on M9 agar, strain N99/pRhtB; settings: Escherichia coli
Procedure: as §1

[3] = tested on: N99/pUC21; test: MIC of amino acids and analogues on M9 agar, strain N99/pUC21; settings: Escherichia coli; N99/pUC21 (vector control; same data with N99/pUK21); M9 agar (2%), about 10^4 viable cells, doubling increments
Procedure: as §1

SMILES | MIC [1] [µg/mL] | MIC [2] [µg/mL] | MIC [3] [µg/mL]
CN(C)CC(N)C(=O)O (racemic) [4-aza-DL-leucine] | 50 | 100 | 50
NCCSC[C@H](N)C(=O)O [AEC, S-(2-aminoethyl)-L-cysteine] | 5 | 20 | 5
CCC(O)C(N)C(=O)O (stereo not drawn) [AHVA, α-amino-β-hydroxyvaleric-acid] | 15000 | 2000 | 100
N[C@@H](Cc1c[nH]cn1)C(=O)O [L-histidine] | 40000 | 5000 | 5000
N[C@@H](CCO)C(=O)O [L-homoserine] | 1000 | 20000 | 1000
C[C@@H](O)[C@H](N)C(=O)O [L-threonine] | 80000 | 40000 | 30000
CC(C)[C@H](N)C(=O)O [L-valine] | 2 | 0.5 | 0.5
CO[C@H](C)[C@H](N)C(=O)O [O-methyl-L-threonine] | 20 | 20 | 20
